# Measured values taken from ChEMBL document CHEMBL1123562, “N-substituted oxopyrimidines and nucleosides: structure-activity relationship for hypnotic activity as central nervous system depressant” (J Med Chem, 1987).
# “And” between values parts separate entries of the source, which are not always exact repeats. Equal entries are not always repeated.
# Tests used:
# Mus musculus [1] = test: Hypnotic activity expressed as sleeping time was determined in ddN strain mice by the icv administration of 3.8 uMol/mouse of the compound; None indicates that the mouse could not fall into sleep; assay type: functional, organism-based
# Mus musculus [2] = test: Tested for PB (pentobarbital)-induced sleep effect expressed as percent control of sleeping time at a dosage (icv) of 2.4 uM concentration; assay type: functional
# Mus musculus [3] = test: Hypnotic activity in ddN strain mice by the iv administration of 0.5 mmol/kg; No activity.; assay type: functional, organism-based
# Mus musculus [4] = test: Tested for PB (pentobarbital)-induced sleep effect expressed as percent control of sleeping time at a dosage (icv) of 3.8 uM concentration; assay type: functional
# Mus musculus [5] = test: Tested for PB (pentobarbital)-induced sleep effect expressed as percent control of sleeping time at a dosage (icv) of 1.0 uM concentration; assay type: functional
# [6] = Partition coefficient is determined for the compound from its equilibrium concentrations in organic phase to that in aqueous buffer of pH 7.4; assay type: ADME; conditions: octanol/water
# Mus musculus [7] = test: Hypnotic activity expressed as sleeping time was determined in ddN strain mice by the iv administration of 0.1 mmol/kg of the compound; None indicates that the mouse could not fall into sleep; assay type: functional, organism-based
# Mus musculus [8] = test: Hypnotic activity expressed as sleeping time was determined in ddN strain mice by the iv administration of 0.3 mmol/kg of the compound; None indicates that the mouse could not fall into sleep; assay type: functional, organism-based
# Mus musculus [9] = test: Hypnotic activity expressed as sleeping time was determined in ddN strain mice by the icv administration of 2.0 uMol/mouse of the compound; None indicates that the mouse could not fall into sleep; assay type: functional, organism-based
# Mus musculus [10] = test: Tested for PB (pentobarbital)-induced sleep effect expressed as percent control of sleeping time at a dosage (icv) of 2.0 uM concentration; assay type: functional
# Mus musculus [11] = test: Hypnotic activity expressed as sleeping time was determined in ddN strain mice by the icv administration of 2.0 uMol/mouse of the compound; assay type: functional
# Mus musculus [12] = test: Hypnotic activity expressed as sleeping time was determined in ddN strain mice by the iv administration of 0.5 umol/kg of the compound; None indicates that the mouse could not fall into sleep; assay type: functional, organism-based
# Mus musculus [13] = test: Hypnotic activity expressed as sleeping time was determined in ddN strain mice by the iv administration of 0.5 mmol/kg of the compound; assay type: functional
# Mus musculus [14] = test: Hypnotic activity expressed as sleeping time was determined in ddN strain mice by the iv administration of 0.3 mmol/kg of the compound; assay type: functional
# Mus musculus [15] = test: Hypnotic activity expressed as sleeping time was determined in ddN strain mice by the icv administration of 3.0 uMol/mouse of the compound; assay type: functional
# Mus musculus [16] = test: Hypnotic activity expressed as ratio of number of animals slept and total number of animals tested was determined in ddN strain mice by the icv administration of 0.5 mmol/kg of the compound; 5/8; assay type: functional
# Mus musculus [17] = test: Hypnotic activity expressed as ratio of number of animals slept and total number of animals tested was determined in ddN strain mice by the icv administration of 0.1 mmol/kg of the compound; 0/8; assay type: functional
# Mus musculus [18] = test: Hypnotic activity expressed as sleeping time was determined in ddN strain mice by the icv administration of 1.0 uMol/mouse of the compound; None indicates that the mouse could not fall into sleep; assay type: functional, organism-based
# Mus musculus [19] = test: Hypnotic activity expressed as ratio of number of animals slept and total number of animals tested was determined in ddN strain mice by the icv administration of 0.3 mmol/kg of the compound; 2/8; assay type: functional
# Mus musculus [20] = test: Hypnotic activity expressed as ratio of number of animals slept and total number of animals tested was determined in ddN strain mice by the icv administration of 0.5 mmol/kg of the compound; 4/4; assay type: functional
# Mus musculus [21] = test: Hypnotic activity expressed as ratio of number of animals slept and total number of animals tested was determined in ddN strain mice by the icv administration of 0.1 mmol/kg of the compound; 8/8; assay type: functional
# Mus musculus [22] = test: Hypnotic activity expressed as sleeping time was determined in ddN strain mice by the icv administration of 1.0 uMol/mouse of the compound; assay type: functional
# Mus musculus [23] = test: Hypnotic activity expressed as ratio of number of animals slept and total number of animals tested was determined in ddN strain mice by the icv administration of 0.3 mmol/kg of the compound; 6/6; assay type: functional
# Mus musculus [24] = test: Hypnotic activity expressed as ratio of number of animals slept and total number of animals tested was determined in ddN strain mice by the icv administration of 0.3 mmol/mouse of the compound; 7/8; assay type: functional
# Mus musculus [25] = test: Hypnotic activity expressed as sleeping time was determined in ddN strain mice by the icv administration of 3.8 uMol/mouse of the compound; assay type: functional
# Mus musculus [26] = test: Hypnotic activity expressed as ratio of number of animals slept and total number of animals tested was determined in ddN strain mice by the icv administration of 0.3 mmol/mouse of the compound; 8/8; assay type: functional
# Mus musculus [27] = test: Hypnotic activity expressed as sleeping time was determined in ddN strain mice by the icv administration of 0.1 mmol/mouse of the compound; None indicates that the mouse could not fall into sleep; assay type: functional, organism-based
# Mus musculus [28] = test: Hypnotic activity expressed as ratio of number of animals slept and total number of animals tested was determined in ddN strain mice by the icv administration of 0.1 mmol/mouse of the compound; 0/8; assay type: functional
# Mus musculus [29] = test: Hypnotic activity expressed as sleeping time was determined in ddN strain mice by the icv administration of 12.0 uMol/mouse of the compound; assay type: functional
structure (smiles),measurement,setting,value
O=c1ccn([C@@H]2O[C@H](CO)[C@@H](O)[C@H]2O)c(=O)[nH]1 [URIDINE],Sleeping time,Mus musculus [1],None
same,Control,Mus musculus [2],135%
same,Sleeping time,Mus musculus [3],None
same,Control,Mus musculus [4],138%
same,Control,Mus musculus [5],93%
O=c1[nH]c(=O)n(C2CCCO2)cc1F (stereo not drawn) [TEGAFUR],Partition coefficient,[6],0.35
same,Sleeping time,Mus musculus [7],None
same,Sleeping time,Mus musculus [8],None
same,Sleeping time,Mus musculus [3],None
same,Sleeping time,Mus musculus [9],None
same,Sleeping time (% of control),Mus musculus [10],139%
CC(=O)OC[C@H]1O[C@@H](n2ccc(=O)[nH]c2=O)[C@H](OC(C)=O)[C@@H]1OC(C)=O [URIDINE TRIACETATE],Sleeping time,Mus musculus [11],8 min
same,Sleeping time,Mus musculus [3],None
same,Sleeping time (% of control),Mus musculus [10],178%
O=c1ccn(Cc2ccccc2)c(=O)[nH]1,Sleeping time,Mus musculus [3],None
same,Sleeping time,Mus musculus [9],None
same,Sleeping time (% of control),Mus musculus [10],86%
O=c1cc[nH]c(=O)[nH]1 [URACIL],Sleeping time,Mus musculus [3],None
same,Control,Mus musculus [5],99%
same,Sleeping time,Mus musculus [9],None
CC(C)=CCn1c(=O)ccn(C2O[C@H](CO)[C@@H](O)[C@H]2O)c1=O (stereo partly drawn),Sleeping time,Mus musculus [1],None
same,Sleeping time,Mus musculus [3],None
same,Control,Mus musculus [4],228%
CCCn1c(=O)ccn(C2O[C@H](CO)[C@@H](O)[C@H]2O)c1=O (stereo partly drawn),Sleeping time,Mus musculus [1],None
same,Sleeping time,Mus musculus [3],None
same,Control,Mus musculus [4],134%
O=c1ccn(C2O[C@H](CO)[C@@H](O)[C@H]2O)c(=O)n1Cc1ccc(Cl)cc1 (stereo partly drawn),Sleeping time,Mus musculus [11],20 min
same,Sleeping time,Mus musculus [3],None
same,Control,Mus musculus [4],203%
Cc1ccc(Cn2c(=O)ccn(C3O[C@H](CO)[C@@H](O)[C@H]3O)c2=O)cc1 (stereo partly drawn),Sleeping time,Mus musculus [12],None
same,Sleeping time,Mus musculus [11],36 min
same,Sleeping time (% of control),Mus musculus [10],308%
O=c1c(F)cn(C2CCCO2)c(=O)n1Cc1ccccc1 (stereo not drawn),Partition coefficient,[6],23.94
same,Sleeping time,Mus musculus [7],None
same,Sleeping time,Mus musculus [11],3 min
same,Sleeping time,Mus musculus [13],7 min
same,Sleeping time,Mus musculus [14],2 min
same,Sleeping time (% of control),Mus musculus [10],262%
CC(=O)OC[C@H]1O[C@@H](n2ccc(=O)n(Cc3ccccc3)c2=O)[C@H](OC(C)=O)[C@@H]1OC(C)=O,Partition coefficient,[6],32.73
same,Sleeping time,Mus musculus [7],None
same,Sleeping time,Mus musculus [11],4 min
same,Sleeping time,Mus musculus [13],5 min
same,Sleeping time,Mus musculus [14],1 min
same,Sleeping time (% of control),Mus musculus [10],186%
CC(c1ccccc1)n1c(=O)ccn(C2O[C@H](CO)[C@@H](O)[C@H]2O)c1=O (stereo partly drawn),Sleeping time,Mus musculus [15],27 min
same,Activity,Mus musculus [16],5
same,Activity,Mus musculus [17],0
same,Sleeping time,Mus musculus [18],None
same,Sleeping time,Mus musculus [11],7 min
same,Activity,Mus musculus [19],2
same,Sleeping time,Mus musculus [3],None
same,Control,Mus musculus [4],303%
same,Sleeping time (% of control),Mus musculus [10],231%
Cc1cccc(Cn2c(=O)ccn(C3O[C@H](CO)[C@@H](O)[C@H]3O)c2=O)c1 (stereo partly drawn),Sleeping time,Mus musculus [11],56 min
same,Sleeping time,Mus musculus [3],None
same,Sleeping time (% of control),Mus musculus [10],326%
COC[C@H]1O[C@@H](n2ccc(=O)[nH]c2=O)[C@H](OC)[C@@H]1OC,Partition coefficient,[6],2.16
same,Sleeping time,Mus musculus [7],None
same,Sleeping time,Mus musculus [8],None
same,Sleeping time,Mus musculus [3],None
same,Sleeping time,Mus musculus [9],None
same,Control,Mus musculus [10],144%
Cc1ccccc1Cn1c(=O)ccn(C2O[C@H](CO)[C@@H](O)[C@H]2O)c1=O (stereo partly drawn),Sleeping time,Mus musculus [15],129 min
same,Activity,Mus musculus [20],4
same,Activity,Mus musculus [21],8
same,Sleeping time,Mus musculus [11],72 min and 70 min
same,Sleeping time,Mus musculus [22],45 min
same,Sleeping time,Mus musculus [3],None
same,Activity,Mus musculus [23],6
same,Sleeping time (% of control),Mus musculus [10],344%
O=c1ccn(C2O[C@H](CO)[C@@H](O)[C@H]2O)c(=O)n1Cc1ccccc1 (stereo partly drawn),Sleeping time,Mus musculus [15],106 min
same,Partition coefficient,[6],2.16
same,Sleeping time,Mus musculus [7],None
same,Activity,Mus musculus [24],7
same,Sleeping time,Mus musculus [25],153 min
same,Sleeping time,Mus musculus [11],36 min and 28 min
same,Sleeping time,Mus musculus [8],None
same,Sleeping time,Mus musculus [3],None
same,Activity,Mus musculus [26],8
same,Control,Mus musculus [4],404%
same,Sleeping time,Mus musculus [27],None
same,Activity,Mus musculus [28],0
same,Control,Mus musculus [5],154%
same,Sleeping time (% of control),Mus musculus [10],292%
COC[C@H]1O[C@@H](n2ccc(=O)n(Cc3ccccc3)c2=O)[C@H](OC)[C@@H]1OC,Partition coefficient,[6],64.45
same,Sleeping time,Mus musculus [7],None
same,Sleeping time,Mus musculus [11],6 min
same,Sleeping time,Mus musculus [13],29 min
same,Sleeping time,Mus musculus [14],6 min
same,Sleeping time (% of control),Mus musculus [10],200%
CCn1c(=O)ccn(C2O[C@H](CO)[C@@H](O)[C@H]2O)c1=O (stereo partly drawn),Sleeping time,Mus musculus [1],None
same,Sleeping time,Mus musculus [3],None
same,Control,Mus musculus [4],124%
Cn1c(=O)ccn(C2O[C@H](CO)[C@@H](O)[C@H]2O)c1=O (stereo partly drawn),Sleeping time,Mus musculus [1],None
same,Sleeping time,Mus musculus [3],None
same,Control,Mus musculus [4],117%
C=CCn1c(=O)ccn(C2O[C@H](CO)[C@@H](O)[C@H]2O)c1=O (stereo partly drawn),Sleeping time,Mus musculus [1],None
same,Sleeping time,Mus musculus [3],None
same,Control,Mus musculus [4],173%
O=c1ccn(Cc2ccccc2)c(=O)n1Cc1ccccc1,Sleeping time,Mus musculus [29],15 min
same,Control,Mus musculus [4],112%
same,Sleeping time,Mus musculus [13],17 min
same,Sleeping time,Mus musculus [9],None
